pEC50: −log10 of the molar value.

The values that follow come from US20100063047A1 (KALYPSYS, INC., priority 2008, published 2010).

T1 sequence (P35367 whole entry): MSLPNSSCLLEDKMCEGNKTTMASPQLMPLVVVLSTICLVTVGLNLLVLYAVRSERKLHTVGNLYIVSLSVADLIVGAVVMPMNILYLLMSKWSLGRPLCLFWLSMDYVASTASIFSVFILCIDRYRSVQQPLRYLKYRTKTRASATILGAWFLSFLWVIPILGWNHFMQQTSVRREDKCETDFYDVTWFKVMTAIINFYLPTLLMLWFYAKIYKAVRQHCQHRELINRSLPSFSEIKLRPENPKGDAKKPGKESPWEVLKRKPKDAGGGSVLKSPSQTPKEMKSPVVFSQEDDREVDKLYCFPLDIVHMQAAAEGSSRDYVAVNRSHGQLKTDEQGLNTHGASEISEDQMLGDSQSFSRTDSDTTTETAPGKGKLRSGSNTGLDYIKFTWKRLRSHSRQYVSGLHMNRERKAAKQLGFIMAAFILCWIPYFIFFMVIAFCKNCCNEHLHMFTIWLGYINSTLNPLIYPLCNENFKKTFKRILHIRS

This assay addresses T1, human H1 (Homo sapiens, UniProt P35367).
T1 construct: host or cells: CHO-K1, also expressing mitochondrion-targeted aequorin
Put plainly: In vitro histamine H1 receptor cell-based aequorin bioluminescence antagonist assay. The conditions noted are these: CHO-K1 cells expressing human H1 and aequorin; histamine at EC80; read-out: H1 Antagonist EC50. In outline: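 CHO-K1 cells stably expressing human H1 or H4 plus mitochondrial aequorin (H4 also with Gα16), loaded with 5 μM coelenterazine-h for 4 h at ~21 °C. Compounds preincubated 15 min at room temperature, then histamine at EC80 added.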
With `Cc1ccc(N2CCN(c3ncnc4scc(C)c34)CC2)c(C)c1` [Example 258, 1-(2,4-dimethylphenyl)-4-{5-methylthieno[2,3-d]pyrimidin-4-yl}piperazine], the negative logarithm of the EC50 (pEC50) was less than 5.00.

Consider `Cc1csc2ncnc(N3CCN(CCN4CCOCC4)CC3)c12` [Example 269, 4-[2-(4-{5-methylthieno[2,3-d]pyrimidin-4-yl}piperazin-1-yl)ethyl]morpholine], for which the pEC50 is less than 5.00.

For `Cc1csc2ncnc(N3CCC(N(C)C(=O)OC(C)(C)C)C3)c12` (stereo not drawn) [Example 270, tert-butyl N-methyl-N-(1-{5-methylthieno[2,3-d]pyrimidin-4-yl}pyrrolidin-3-yl)carbamate], the pEC50 was less than 5.00.

On to `CC(=O)c1ccc(N2CCN(c3ncnc4scc(C)c34)CC2)cc1` [Example 271, 1-[4-(4-{5-methylthieno[2,3-d]pyrimidin-4-yl}piperazin-1-yl)phenyl]ethan-1-one], for which the pEC50 is less than 5.00.

Regarding `Cc1csc2ncnc(N3CCN(c4ccc([N+](=O)[O-])cc4)CC3)c12` [Example 273, 1-{5-methylthieno[2,3-d]pyrimidin-4-yl}-4-(4-nitrophenyl)piperazine], the pEC50 is less than 5.00.

As for `Cc1csc2ncnc(N(CCc3ccccc3)Cc3ccccc3)c12` [Example 277, N-benzyl-5-methyl-N-(2-phenylethyl)thieno[2,3-d]pyrimidin-4-amine], the pEC50 is less than 5.00.

For `Cc1csc2ncnc(N3CCN(c4ccc(C(F)(F)F)cc4)CC3)c12` [Example 287, 1-{5-methylthieno[2,3-d]pyrimidin-4-yl}-4-[4-(trifluoromethyl)phenyl]piperazine], the negative-log EC50 (pEC50) is less than 5.00.

Regarding `c1ccc(CCNc2ncnc3sccc23)cc1` [Example 290, N-phenethylthieno[2,3-d]pyrimidin-4-amine], the negative-log EC50 (pEC50) is less than 5.00.

Turning to `Cc1csc2c(NCCc3ccc(Cl)cc3)ncnc12` [Example 295, N-(4-chlorophenethyl)-7-methylthieno[3,2-d]pyrimidin-4-amine], the pEC50 is less than 5.00.

Turning to `COc1ccc(CCNc2nc(C)nc3sc(C)c(C)c23)cc1OC` [Example 296, N-(3,4-dimethoxyphenethyl)-2,5,6-trimethylthieno[2,3-d]pyrimidin-4-amine], the pEC50 was less than 5.00.

With `Clc1ccccc1CCNc1ncnc2sc3c(c12)CCCC3` [Example 297], the pEC50 is less than 5.00.

For the compound `CCOC(=O)CNc1ncnc2scc(-c3ccccc3)c12` [Example 300, Ethyl 2-(5-phenylthieno[2,3-d]pyrimidin-4-ylamino)acetate], the pEC50 is less than 5.00.

Turning to `Cc1sc2ncnc(NCCc3ccc(S(N)(=O)=O)cc3)c2c1C` [Example 301, 4-(2-(5,6-dimethylthieno[2,3-d]pyrimidin-4-ylamino)ethyl)benzenesulfonamide], the pEC50 is less than 5.00.

In the case of `c1ccc(CC2CCN(c3ncnc4sccc34)CC2)cc1` [Example 302, 4-(4-benzylpiperidin-1-yl)thieno[2,3-d]pyrimidine], the pEC50 is less than 5.00.

In the case of `COCC(C)n1c(C)cc(C(=O)CSc2ncnc3sc(C)c(C)c23)c1C` (stereo not drawn) [Example 303, 2-(5,6-dimethylthieno[2,3-d]pyrimidin-4-ylthio)-1-(1-(1-methoxypropan-2-yl)-2,5-dimethyl-1H-pyrrol-3-yl)ethanone], the pEC50 is less than 5.00.

As to `CC(=O)c1c(C)[nH]c(C(=O)CSc2ncnc3sc(C)c(C)c23)c1C` [Example 304, 1-(4-acetyl-3,5-dimethyl-1H-pyrrol-2-yl)-2-(5,6-dimethylthieno[2,3-d]pyrimidin-4-ylthio)ethanone], the pEC50 was less than 5.00.

Regarding `Cc1sc2ncnc(N3CCC(C(=O)OCc4ccc(C#N)cc4)CC3)c2c1C` [Example 306, 4-cyanobenzyl 1-(5,6-dimethylthieno[2,3-d]pyrimidin-4-yl)piperidine-4-carboxylate], the pEC50 was less than 5.00.

`CCCC(Nc1ncnc2sccc12)c1ccccc1` (stereo not drawn) [Example 307, N-(1-phenylbutyl)thieno[2,3-d]pyrimidin-4-amine]: the pEC50 was less than 5.00.

A word on the pEC50: it is the EC50 on a negative log10 scale, so that one unit is a factor of ten.
